Data: PMC10545567, “A complex bearing TSPO PIGA ligand coordinated to the [Au(PEt3)]^+ pharmacophore is highly cytotoxic against ovarian cancer cells” (Biometals, 2023)

Target: T1, Thioredoxin reductase (TrxR) (Rattus norvegicus, UniProt O89049)
T1 construct: gene Txnrd1
Test: DTNB reduction assay with isolated rat liver TrxR, […] nm, […] min preincubation with NADPH

T1 sequence (O89049 whole entry): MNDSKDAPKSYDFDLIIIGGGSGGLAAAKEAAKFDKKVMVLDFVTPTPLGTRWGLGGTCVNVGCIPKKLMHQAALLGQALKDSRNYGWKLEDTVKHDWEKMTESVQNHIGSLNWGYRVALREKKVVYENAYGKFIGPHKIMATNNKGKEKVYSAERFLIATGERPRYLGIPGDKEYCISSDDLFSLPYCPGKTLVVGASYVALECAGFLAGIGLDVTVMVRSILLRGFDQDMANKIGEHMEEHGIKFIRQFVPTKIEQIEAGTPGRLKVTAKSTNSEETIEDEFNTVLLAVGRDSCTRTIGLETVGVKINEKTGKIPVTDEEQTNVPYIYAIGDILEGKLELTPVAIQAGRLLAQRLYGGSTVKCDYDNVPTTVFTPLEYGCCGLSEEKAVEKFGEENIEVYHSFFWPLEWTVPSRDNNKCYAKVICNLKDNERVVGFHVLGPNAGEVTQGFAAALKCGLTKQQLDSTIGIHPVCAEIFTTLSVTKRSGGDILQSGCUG

## CC[P+](CC)(CC)[Au-][Cl] [compound 5, Et3PAuCl]
  IC50: 51.1 nM

## CCCCCCN(CCCCCC)C(=O)C(=O)c1c(-c2ccccc2)[n]([Au-][P+](CC)(CC)CC)c2ccccc12 [compound 1, [N,N-di-n-hexyl-2-(2-phenyl-1-indol-kN-3-yl)glyoxylamido]-AuPEt3]
  IC50: 59.2 nM
